According to patent publication US20230203025A1, “ENHANCERS OF PARTICULATE GUANYLYL CYCLASE RECEPTOR A” (Mayo Foundation for Medical Education and Research, priority 2020, published 2023):
pEC50: −log10 of the molar value. Several values for one entry are separate records, joined by “and”; a condition that tells them apart may be missing. Equal values may be shown once.

What was measured:
pGC-A = molecular target: T1, pGC-A (Homo sapiens, UniProt P16066); assay: cGMP production by HTRF in HEK293 cells overexpressing pGC-A; assay type: cell-based; conditions: for Emax: HEK293, cGMP normalized to maximal amount produced by an EC80 concentration of ANP, read-out: Max efficacy; for pEC50: HEK293 pGC-A cells, cGMP HTRF, in the presence of EC20 concentration of ANP
T1 construct: expressed in transfected cells; host or cells: HEK293
T1 sequence (P16066 33-1061): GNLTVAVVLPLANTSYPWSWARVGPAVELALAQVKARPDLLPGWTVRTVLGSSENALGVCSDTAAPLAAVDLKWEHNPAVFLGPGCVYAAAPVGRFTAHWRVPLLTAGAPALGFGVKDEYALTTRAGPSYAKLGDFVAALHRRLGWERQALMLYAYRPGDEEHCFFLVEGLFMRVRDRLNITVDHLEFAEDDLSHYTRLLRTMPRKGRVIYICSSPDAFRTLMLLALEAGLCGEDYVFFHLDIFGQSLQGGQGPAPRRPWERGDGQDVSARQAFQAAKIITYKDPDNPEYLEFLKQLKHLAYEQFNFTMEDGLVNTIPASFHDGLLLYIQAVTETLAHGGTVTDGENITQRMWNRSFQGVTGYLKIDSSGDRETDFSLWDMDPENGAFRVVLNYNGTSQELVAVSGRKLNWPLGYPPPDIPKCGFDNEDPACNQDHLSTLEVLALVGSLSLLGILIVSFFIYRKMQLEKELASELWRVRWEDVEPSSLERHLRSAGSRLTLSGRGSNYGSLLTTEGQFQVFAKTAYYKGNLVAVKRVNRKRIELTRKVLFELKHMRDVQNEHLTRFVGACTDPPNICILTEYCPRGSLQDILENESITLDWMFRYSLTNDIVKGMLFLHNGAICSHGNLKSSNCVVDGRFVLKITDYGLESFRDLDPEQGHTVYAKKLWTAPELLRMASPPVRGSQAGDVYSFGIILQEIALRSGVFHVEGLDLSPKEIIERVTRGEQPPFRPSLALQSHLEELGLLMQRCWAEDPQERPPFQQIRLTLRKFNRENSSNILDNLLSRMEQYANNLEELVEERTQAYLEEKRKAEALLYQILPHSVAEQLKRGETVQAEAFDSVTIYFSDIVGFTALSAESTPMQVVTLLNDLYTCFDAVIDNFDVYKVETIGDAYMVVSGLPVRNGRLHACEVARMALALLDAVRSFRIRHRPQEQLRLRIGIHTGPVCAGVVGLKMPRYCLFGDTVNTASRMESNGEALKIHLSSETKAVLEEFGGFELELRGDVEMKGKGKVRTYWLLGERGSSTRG
T1 sequence (P01160 124-151 partner limits assumed): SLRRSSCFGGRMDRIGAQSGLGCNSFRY
Method: Assay details: 20 nL of 10 μM test compound in DMSO was added to columns 5-48 of 1536 well white high base screening plates (Corning, New York, N.Y.) cells using 550 ECHO acoustic dispenser (Labcyte, San Jose, Calif.). […] HEK293 cells overexpressing GC-A were resuspended in assay media (OptimMem media containing 2% Heat-inactivated Fetal bovine serum and L-glutamine) at a density of 6×10^5 cells/mL and 2 μL were plated in screening plates (1200 cells/well) in suspension using a Bioraptr 2. Plates were spun at 1000 rpm for 1 min and incubated for 30 min at room temperature. 1.5 μL d2-labled cGMP followed by 1.5 uL Eu^3+ cryptate-labeled anti-cGMP cGMP detection kit (CiBio; #62GM2PEC) prepared according to manufacturer's protocol were added to all wells using a Bioraptr 2 and TR-FRET signal was detected on an EnVision detector (PerkinElmer).

in vitro solubility = assay type: physicochemical; conditions: FIG. 3
[1] = rodent microsomal stability; assay type: in vitro ADME; conditions: FIG. 3
[2] = tested on: primary human cardiomyocytes (HCMs); assay: inhibition of TGF-beta 1 induced human cardiomyocyte hypertrophy; assay type: cell-based; conditions: TGF-β1 5 ng/mL
Method: Methods (Inhibition of Human Cardiac Hypertrophy In Vitro): primary human cardiomyocytes (HCMs) were grown in growth media to 50% confluence and then were subjected to serum starvation for 24 hrs. After that, 5 ng/mL of the cytokine TGFβ-1 (R&D Systems) was added to the media for 48 hrs to induce HCM hypertrophy. […] Normal cell buffer served as a vehicle only control, where TGFP-1 alone served as the positive control. Analysis for cell surface area (μm^2) was performed using the ImageJ software at the end of the study.
Results: to further support the cGMP generation in human primary cells leads to favorable biological GC-A mediated, the anti-hypertrophic effects were assessed of Compound 19 on live HCMs stressed with TGF-β1 (5 ng/mL), using a state-of-the-art live cell imaging platform (IncuCyte System).

Row | SMILES | Emax (pGC-A) [%] | pEC50 (pGC-A) | further results
1 | O=C(Nc1nc2c(F)cc(F)cc2s1)C1CCCN(C(=O)C2CC2)C1 (centres unmarked) [Compound 9] | 82 | 5.71 | 
2 | O=C(Nc1nc2c(F)cc(F)cc2s1)C1CCCN(Cc2ccccc2)C1 (centres unmarked) [Compound 16] | 66 | 5.62 | 
3 | O=C(Nc1nc2c(F)cc(F)cc2s1)C1CCN(C(=O)Cc2ccccc2)C1 (centres unmarked) [Compound 27] | 66 | 5.57 | 
4 | O=C(Nc1nc2c(F)cc(F)cc2s1)C1CCCN(C(=O)c2ccccc2)C1 (centres unmarked) [Compound 12] | 64 | 5.47 | 
5 | CC(C)(C)OC(=O)N1CCCC(C(=O)Nc2nc3c(F)cc(F)cc3s2)C1 (centres unmarked) [Compound 7] | 64 | 5.08 | 
6 | CC(C)(C)C(=O)N1CCC(C(=O)Nc2nc3c(F)cc(F)cc3s2)CC1 [Compound 1] | 83 | 5.66 and 5.86 and 5.80 | potency compared to compound A (pGC-A; HEK pGC-A cGMP, FIG. 2-3): improved potency; Max efficacy (pGC-A; cGMP normalized to maximal amount produced by an EC80 concentration of ANP): 76% and 77%; solubility compared to compound A (in vitro solubility): improved; rodent microsomal stability compared to compound A [1]: improved
7 | O=C(Nc1nc2c(F)cc(F)cc2s1)C1CCN(C(=O)c2ccccc2)C1 (centres unmarked) [Compound 25] | 84 | 5.16 | 
8 | O=C(Nc1nc2c(F)cc(F)cc2s1)C1CCN(C(=O)C2CCC2)C1 (centres unmarked) [Compound 23] | 82 | 5.22 | 
9 | CC[C@H](C)[C@@H]1NC(=O)[C@H](CCCNC(=N)N)NC(=O)[C@H](CC(=O)O)NC(=O)[C@H](CCSC)NC(=O)[C@H](CCCNC(=N)N)NC(=O)CNC(=O)CNC(=O)[C@H](Cc2ccccc2)NC(=O)[C@@H](NC(=O)[C@H](CO)NC(=O)[C@H](CO)NC(=O)[C@H](CCCNC(=N)N)NC(=O)[C@H](CCCNC(=N)N)NC(=O)[C@H](CC(C)C)NC(=O)[C@@H](N)CO)CSSC[C@@H](C(=O)N[C@@H](CC(N)=O)C(=O)N[C@@H](CO)C(=O)N[C@@H](Cc2ccccc2)C(=O)N[C@@H](CCCNC(=N)N)C(=O)N[C@@H](Cc2ccc(O)cc2)C(=O)O)NC(=O)CNC(=O)[C@H](CC(C)C)NC(=O)CNC(=O)[C@H](CO)NC(=O)[C@H](CCC(N)=O)NC(=O)[C@H](C)NC(=O)CNC1=O [ANP, reference compound] |  |  | inhibition of HCM hypertrophy ([2]; ANP 10^−8 M alone): significant inhibition; inhibition of HCM hypertrophy ([2]; ANP 10^−10 M alone): no effect
10 | O=C(Nc1nc2c(F)cc(F)cc2s1)C1CCN(C(=O)C2CCC2)CC1 [Compound 2] | 79 | 5.76 | 
11 | O=C(Nc1nc2c(F)cc(F)cc2s1)C1CCCN(C(=O)Cc2ccccc2)C1 (centres unmarked) [Compound 14] | 71 | 5.69 | 
12 | CC(C)(C)C(=O)N1CCCC(C(=O)Nc2nc3c(F)cc(F)cc3s2)C1 (centres unmarked) [Compound 8] | 73 | 5.29 | 
13 | O=C(Nc1nc2c(F)cc(F)cc2s1)C1CCCN(C(=O)C2CCC2)C1 (centres unmarked) [Compound 10] | 77 | 5.74 | 
14 | CC(C)(C)C(=O)N1CCC(C(=O)Nc2nc3c(Cl)cccc3s2)CC1 [Compound 6] | 51 | 5.70 | 
15 | O=C(Nc1nc2c(F)cc(F)cc2s1)C1CCCNC1 (centres unmarked) [Compound 18] | 82 | 5.98 | 
16 | CC(C)(C)C(=O)N1CCC(C(=O)Nc2nc3c(Cl)ccc(Cl)c3s2)CC1 [Compound 5] |  | < 4.18 | 
17 | CC(C)(C)CC(=O)N1CCCC(C(=O)Nc2nc3c(F)cc(F)cc3s2)C1 (centres unmarked) [Compound 13] | 74 | 5.45 | 

More lines, main results first:

Row | Emax (pGC-A) [%] | pEC50 (pGC-A) | SMILES | further results
18 | 74 | 5.94 | CC(=O)N1CCC(C(=O)Nc2nc3c(F)cc(F)cc3s2)CC1 [Compound 3] | 
19 | 79 | 5.78 | CC(=O)N1CCCC(C(=O)Nc2nc3c(F)cc(F)cc3s2)C1 (centres unmarked) [Compound 11] | 
20 | 84 | 6.25 | CC(=O)N1CCC(C(=O)Nc2nc3c(F)cc(F)cc3s2)C1 (centres unmarked) [Compound 24] | 
21 | 81 | 5.79 | CN(C)CCN1CCC(C(=O)Nc2nc3c(F)cc(F)cc3s2)C1 (centres unmarked) [Compound 32] | 
22 | 66 | 6.00 | CS(=O)(=O)N1CCC(C(=O)Nc2nc3c(F)cc(F)cc3s2)C1 (centres unmarked) [Compound 28] | 
23 | 74 | 5.36 | CC(C)(C)OC(=O)N1CCC(C(=O)Nc2nc3c(F)cc(F)cc3s2)C1 (centres unmarked) [Compound 20] | 
24 | 80 | 6.08 | CC(C)N1CCC(C(=O)Nc2nc3c(F)cc(F)cc3s2)CC1 [Compound 4] | 
25 | 81 | 5.91 | CN1CCCC(C(=O)Nc2nc3c(F)cc(F)cc3s2)C1 (centres unmarked) [Compound 17] | 
26 | 84 | 5.68 | CC(C)(C)C(=O)N1CCC(C(=O)Nc2nc3c(F)cc(F)cc3s2)C1 (centres unmarked) [Compound 21] | 
27 | 82 | 5.20 | O=C(Nc1nc2c(F)cc(F)cc2s1)C1CCN(C(=O)C2CC2)C1 (centres unmarked) [Compound 22] | 
28 | 77 | 5.76 | CS(=O)(=O)N1CCCC(C(=O)Nc2nc3c(F)cc(F)cc3s2)C1 (centres unmarked) [Compound 15] | 
29 | 81 | 5.49 | CC(C)(C)CC(=O)N1CCC(C(=O)Nc2nc3c(F)cc(F)cc3s2)C1 (centres unmarked) [Compound 26] | 
30 | 84 | 5.75 | CN1CCC(C(=O)Nc2nc3c(F)cc(F)cc3s2)C1 (centres unmarked) [Compound 30] | 
31 | 84 | 5.80 | O=C(Nc1nc2c(F)cc(F)cc2s1)C1CCNC1 (centres unmarked) [Compound 31] | 
